Columns and labels:
rats [1] = experiment: Carrageenan-induced paw edema (plethysmometer); assay type: in vivo, Wistar rats; conditions: for Change in Edema Volume: mean ± SEM, rats; for Reduction in edema volume: vs control
Method: (§1) The acute and local inflammation and paw edema was induced by intraplantar (i.pl.) injection of 0.1 mL of 1% carrageenan solution in PBS into the rat’s right hind paw, according to the modified method of Winter and Lence, as described previously; (n = 84). […] Vehicle (1% Tween 80) was administered by the same route as the tested compounds.

mice [2] = experiment: Formalin test; assay type: in vivo, Albino Swiss mice; conditions: vs vehicle; for Reduction of pain reaction (licking duration), neurogenic phase: phase I (0–5 min); for Reduction of pain response, inflammatory phase: phase II (15–30 min)
Method: The pain reaction was induced by intraplantar (i.pl.) injection of 20 μL of 2.5% formalin solution into the right hind paw of the mouse (n = 136). […] Time (in seconds) spent on licking or biting the injected hind paw in selected intervals, 0–5 min (neurogenic phase) and 15–30 min (inflammatory phase), was measured in each group and was an indicator of nociceptive behavior. The procedure was based on the method described by with some modifications by.

mice [3] = experiment: Streptozotocin-induced diabetic neuropathy, von Frey test (tactile allodynia); assay type: in vivo, Albino Swiss mice; conditions: diabetic (STZ) mice, 10 mg/kg i.p.; for Pain threshold after compound administration (von Frey): 30 min before the test; for Analgesic activity (von Frey): vs pre-drug threshold
Method: The induction of diabetes neuropathy in mice was achieved through the administration of streptozotocin (STZ), dissolved in PBS at a dose of 200 mg/kg in a constant volume of 0.1 mL/10 g of mouse body weight, intraperitoneally; (n = 50). Blood glucose levels were measured immediately prior to the administration of streptozotocin and 14 and 21 days following this administration in order to confirm the presence of hyperglycemia. For this purpose, 5 µL of blood was drawn from the tail vein of the mice using a strip glucose meter (AccuChek Active, Roche, Boulogne-Billancourt, France).
(§2) Furthermore, to assess the response to mechanical stimuli (i.e., tactile/mechanical) allodynia), the von Frey test was carried out with application of the electronic von Frey unit (Panlab, Cornellà de Llobregat, Spain) equipped with a fiber, the distal end of which was applied to the right hind paw of the mouse. The device automatically recorded the pressure force (in grams) applied until the paw withdrawal response occurred. In the absence of pain, an increase in the pressure value was observed. The force at which the animal withdrew its paw was considered the pain threshold for the mechanical stimulus. Measurements were taken before streptozotocin administration (in normoglycemic mice) and again 21 days later, both before and after compound administration, in diabetic mice (glucose level > 300 mg/dL) that had developed mechanical allodynia. On the day of the experiment, each mouse was placed in an observation chamber with a wire mesh bottom and was allowed to habituate for 1 h. After the habituation period, in order to obtain baseline values, each mouse was tested 3 times alternately in each hind paw, allowing at least 30 s between each measurement. Then, the mice were pretreated intraperitoneally with compound or vehicle, and 30 min later the animals were tested again and three measurements were taken, the mean of which was calculated to obtain the mean values after drug administration for each mouse. The anti-allodynic effect was defined as an increase in the pressure force value required to elicit a pain response, compared to the control group.

mice [4] = experiment: Oxaliplatin-induced neuropathic pain, von Frey test (tactile allodynia); assay type: in vivo, Albino Swiss mice; conditions: 10 mg/kg i.p.
Method: as §2
To assess the response to mechanical stimuli (i.e., tactile/mechanical allodynia), the von Frey test was performed using an electronic von Frey device (Bioseb, Vitrolles, France), as described in Section 4.4.5. In this assay, measurements were taken before and 3 h after oxaliplatin administration, as well as 7 days later. […] A total of 30 min after administration, the assessment was repeated using the same procedure.

rats [5] = experiment: Carrageenan-induced mechanical hyperalgesia (pain pressure threshold, Randall-Selitto); assay type: in vivo, Wistar rats; conditions: for Pain Threshold: mean ± SEM, rats; for Increase in pain threshold: vs control
Method: as §1, with “84). The paw volume was measured using the dislocation of the water column of the plethysmometer (Type a, 7140; Plethysmometer, Ugo Basile, Gemonio, Italy) before (V0) and at 1, 2, and 3 h (V1, V2, V3) after i.pl. carrageenan injection.” for “84).”
Furthermore, we performed the pain pressure threshold test to assess heightened sensitivity to mechanical stimuli. The experiment was conducted based on the method described by Randall and Selitto [58], with certain modifications. An analgesymeter (AnalgesyMeter 37215, Ugo Basile, Gemonio, Italy) was used to gradually apply increasing pressure (measured in grams) to the plantar surface of the right hind paw of the rat until paw withdrawal occurred. At this point, the intensity of the applied force (in grams) was recorded as the withdrawal threshold. The maximum force intensity was set at 250 g. Carrageenan induces a decrease in the nociceptive threshold in response to a mechanical stimulus, a condition referred to as hyperalgesia. For each rat, paw withdrawal thresholds were recorded both before (0 h) and 1, 2, and 3 h after carrageenan administration (i.e., 3.5 h after intraperitoneal pretreatment with the tested compounds). […] The analgesic effect of the tested compounds was assessed in comparison with the control group (1% Tween 80); the injection was performed intraperitoneally within 30 min of carrageenan administration. An analgesic effect occurs when the compound administered produces a pain response with greater pressure than the control group.

[6] = 10 mg/kg i.p., 1 h after carrageenan
[7] = 10 mg/kg i.p., 2 h after carrageenan
[8] = 10 mg/kg i.p., 3 h after carrageenan
[9] = 20 mg/kg i.p., 1 h after carrageenan
[10] = 20 mg/kg i.p., 2 h after carrageenan
[11] = 20 mg/kg i.p., 3 h after carrageenan
[12] = early phase, 3 h after oxaliplatin
[13] = late phase, 7 days after oxaliplatin
[14] = 10 mg/kg i.p., 0 h (before carrageenan)
[15] = 20 mg/kg i.p., 0 h (before carrageenan)

Row | Compound | Change in Edema Volume (rats [1]; [6]) | Change in Edema Volume (rats [1]; [7]) | Change in Edema Volume (rats [1]; [8]) | Change in Edema Volume (rats [1]; [9]) | Change in Edema Volume (rats [1]; [10]) | Change in Edema Volume (rats [1]; [11]) | Reduction in edema volume (rats [1]; 20 mg/kg, 2 h) | Reduction of pain reaction (licking duration), neurogenic phase (mice [2]; 5 mg/kg i.p.) | Reduction of pain reaction (licking duration), neurogenic phase (mice [2]; 10 mg/kg i.p.) | Reduction of pain reaction (licking duration), neurogenic phase (mice [2]; 20 mg/kg i.p.) | Reduction of pain response, inflammatory phase (mice [2]; 5 mg/kg i.p.) | Reduction of pain response, inflammatory phase (mice [2]; 10 mg/kg i.p.) | Reduction of pain response, inflammatory phase (mice [2]; 20 mg/kg i.p.) | Pain threshold after compound administration (von Frey) (mice [3]) | Analgesic activity (von Frey) (mice [3]) | Analgesic activity (von Frey) (mice [4]; [12]) | Pain threshold after compound administration (von Frey) (mice [4]; [12]) | Analgesic activity (von Frey) (mice [4]; [13]) | Pain threshold after compound administration (von Frey) (mice [4]; [13]) | Pain Threshold (rats [5]; [14]) | other results
1 | O=C1c2ccccc2C(=O)N1CC(O)CN1CCN(c2cccc(C(F)(F)F)c2)CC1 (stereo not drawn) [Compound F3] | 1.37 ± 0.04 ns mL | 1.70 ± 0.04 ns mL | 1.89 ± 0.03 mL | 1.14 ± 0.05 mL | 1.47 ± 0.07 mL | 1.67 ± 0.06 mL | 19.2% | did not attenuate the nociceptive response | did not attenuate the nociceptive response | 41.6% | 34.5% | 57.5% | 80.9% | 5.21 ± 0.32 g | 81.13% | 82.9% | 3.53 ± 0.08 g | 37.59% | 3.99 g | 134.2 ± 2.4 g | Reduction in edema volume (rats [1]; 10 mg/kg, 3 h): 9.5%; Reduction in edema volume (rats [1]; 20 mg/kg, 1 h): 16.8%; Reduction in edema volume (rats [1]; 20 mg/kg, 3 h): 20.1%; Pain Threshold (rats [5]; [6]): 141.7 ± 1.7 g; Pain Threshold (rats [5]; [7]): 142.5 ± 2.1 g; Pain Threshold (rats [5]; [8]): 137.5 ± 1.7 g; Increase in pain threshold (rats [5]; 10 mg/kg, 1 h): 7%; Increase in pain threshold (rats [5]; 10 mg/kg, 2 h): 12.5%; Increase in pain threshold (rats [5]; 10 mg/kg, 3 h): 10%; Pain Threshold (rats [5]; [15]): 135.8 ± 1.5 g; Pain Threshold (rats [5]; [9]): 148.3 ± 3.3 g; Pain Threshold (rats [5]; [10]): 150.8 ± 3.9 g; Pain Threshold (rats [5]; [11]): 148.3 ± 3.1 g; Increase in pain threshold (rats [5]; 20 mg/kg, 1 h): 11.9%; Increase in pain threshold (rats [5]; 20 mg/kg, 2 h): 19%; Increase in pain threshold (rats [5]; 20 mg/kg, 3 h): 18.6%
2 | COc1ccccc1N1CCN(CC(O)CN2C(=O)c3ccccc3C2=O)CC1 (stereo not drawn) [Compound F2] | 1.51 ± 0.04 ns mL | 1.82 ± 0.03 mL | 1.99 ± 0.02 ns mL | 1.15 ± 0.08 mL | 1.63 ± 0.04 mL | 1.91± 0.03 ns mL | 17.7% | did not attenuate the nociceptive response | 44.6% | 53% | 51% | 73% | 87% | 4.58 ± 0.29 g | 39.4% | 81% | 3.91 ± 0.29 g | 45.45% | 4.0 ± 0.34 g | 132.5 ± 2.1 g | Reduction in edema volume (rats [1]; 10 mg/kg, 2 h): approximately 9%; Reduction in edema volume (rats [1]; 20 mg/kg, 1 h): 26.8%; Pain Threshold (rats [5]; [7]): 127.5 ± 1.5 ns g; Pain Threshold (rats [5]; [8]): 130 ± 2.6 ns g; Effect on pain threshold (in words) (rats [5]; 10 mg/kg, over 1–3 h): lack of analgesic activity; Pain Threshold (rats [5]; [15]): 132.5 ± 2.8 g; Pain Threshold (rats [5]; [9]): 147.5 ± 2.5 g; Pain Threshold (rats [5]; [10]): 141.7 ± 1.7 g; Pain Threshold (rats [5]; [11]): 139.2 ± 0.8 g; Increase in pain threshold (rats [5]; 20 mg/kg, 1 h): 10%; Increase in pain threshold (rats [5]; 20 mg/kg, 2 h): 14%; Increase in pain threshold (rats [5]; 20 mg/kg, 3 h): 11.3%
3 | O=C1c2ccccc2C(=O)N1CC(O)CN1CCN(c2ccccc2)CC1 (stereo not drawn) [Compound F1] | 1.14 ± 0.05 mL | 1.51 ± 0.09 mL | 1.67 ± 0.09 mL | 1.09 ± 0.02 mL | 1.15 ± 0.07 mL | 1.55 ± 0.09 mL | 37.2% | did not attenuate the nociceptive response | 44.9% | 62.7% | 37% | 66% | 90% | 4.28 ± 0.32 g | 48.6% | 60.7% | 3.39 ± 0.46 g | 35% | 3.9 ± 0.34 g | 128.3 ± 1.1 g | Reduction in edema volume (rats [1]; 10 mg/kg, 1 h): 27.8%; Reduction in edema volume (rats [1]; 10 mg/kg, 2 h): 17.5%; Reduction in edema volume (rats [1]; 10 mg/kg, 3 h): 17%; Reduction in edema volume (rats [1]; 20 mg/kg, 3 h): 22.1%; Pain Threshold (rats [5]; [6]): 138.3 ± 2.1 g; Pain Threshold (rats [5]; [7]): 142.5 ± 2.1 g; Pain Threshold (rats [5]; [8]): 134.2 ± 2.1 g; Increase in pain threshold (rats [5]; 10 mg/kg, 1 h): 16%; Increase in pain threshold (rats [5]; 10 mg/kg, 2 h): 19.5%; Increase in pain threshold (rats [5]; 10 mg/kg, 3 h): 14.2%; Pain Threshold (rats [5]; [15]): 130.0 ± 2.9 g; Pain Threshold (rats [5]; [9]): 143.3 ± 2.5 g; Pain Threshold (rats [5]; [10]): 148.3 ± 2.8 g; Pain Threshold (rats [5]; [11]): 146.7 ± 1.1 g; Increase in pain threshold (rats [5]; 20 mg/kg, 1 h): 20.2%; Increase in pain threshold (rats [5]; 20 mg/kg, 2 h): 24.4%; Increase in pain threshold (rats [5]; 20 mg/kg, 3 h): 25%
